# Source: publication PMC11052077, “Discovery of Dolutegravir Derivative against Liver Cancer via Inducing Autophagy and DNA Damage” (Molecules, 2024)
# Where two headings read alike, the source gives them in different places.
# Assays:
# Huh7 cells = test: CCK8 cell viability assay, Huh7; format: cell-based, human; conditions: for IC50: Huh7, CCK8, read-out: half maximal inhibitory concentration (IC50), Huh7
# Protocol: (§1) This study aimed to assess the anti-proliferative activity of dolutegravir-1,2,3-triazole derivatives on hepatocellular carcinoma cell lines, Huh7 and hepG2. A comprehensive CCK8 assay was employed to evaluate the impact of these compounds on cell viability, with cells treated at a concentration of 20 μM for 48 h. HRM cells, a normal cell line, were included as a control for comparative analysis.
# (§2) Human hepatocellular carcinoma cell lines Huh7 and hepG2 were obtained from ATCC (Manassas, VA, USA). Cells were cultured in DMEM or RPMI 1640 medium containing 10% FBS and 1% penicillin/streptomycin at 37 °C with a 5% CO2-humidified atmosphere.
# (§3) CCK8 assay was used to measure cell viability. Cells with a density of 1 × 10^4 cells/well were seeded on 96-well plates. After adhesion, cells were treated with different diluted compounds or vehicle control DMSO and continued to be cultured for 48 h or 72 h, respectively. Then, CCK8 reagent was added for one hour incubation at 37 °C with 5% CO2. Absorbance was measured using a Microplate spectrophotometer (Thermo, Waltham, MA, USA) at 450 nm. The ratio of cell viability of control was taken as 100%. […] Then, IC50 of compounds were investigated using the prism statistical software 7.0.
# hepG2 cells = test: CCK8 cell viability assay, hepG2; format: cell-based, human
# Protocol: as §1, §2, §3
# [1] = system: HRM cells (human renal mesangial cells); test: in vitro; format: cell-based; conditions: 20 µM
# Protocol: (§4) This study aimed to assess the anti-proliferative activity of dolutegravir-1,2,3-triazole derivatives on hepatocellular carcinoma cell lines, Huh7 and hepG2. A comprehensive CCK8 assay was employed to evaluate the impact of these compounds on cell viability, with cells treated at a concentration of 20 μM for 48 h. HRM cells, a normal cell line, were included as a control for comparative analysis. […]
# as §3
# [2] = dose 27 times greater than the clinical dose, preclinical study; cited from earlier work
# in vitro = format: cell-based, human; conditions: human
# Protocol: as §4, §3
# [3] = 20 μM, Huh7, CCK8, control taken as 100%
# [4] = 20 μM, hepG2, CCK8, control taken as 100%
Structure (SMILES),"Cell Viability (100%), 20 μM, 48 h, Huh7 (Huh7 cells; [3])",IC50 (Huh7 cells; 48 h),"Cell Viability (100%), 20 μM, 48 h, hepG2 (hepG2 cells; [4])","IC50 (hepG2 cells; 48 h, hepG2, CCK8, read-out: half maximal inhibitory concentration (IC50), hepG2)","Cell Viability (100%), 20 μM, 48 h, HRM [1]","viability at 20 µM (Huh7 cells; Homo sapiens, Huh-7, 20 μM, 48 h, Huh7, CCK8, control taken as 100%)","IC50 (Huh7 cells; Homo sapiens, Huh-7, 48 h)","IC50 (hepG2 cells; Homo sapiens, HepG2, 48 h, hepG2, CCK8, read-out: half maximal inhibitory concentration (IC50), hepG2)","viability at 20 µM (hepG2 cells; Homo sapiens, 20 μM, 48 h, hepG2, CCK8, control taken as 100%)",fertility and teratogenic toxicity [2],"viability at 48 h, 20 µM (in vitro)"
COc1c2n(cc(C(=O)Nc3cccc(-c4cn(Cc5cccc(Br)c5)nn4)c3)c1=O)CC1OCCC(C)N1C2=O (centres unmarked) [Compound 6e],20.45%,16.2 ± 0.37 µM,55.14%,19.7 ± 2.19 µM,102.27%,–,–,–,–,–,–
COc1c2n(cc(C(=O)Nc3cccc(-c4cn(Cc5ccccc5F)nn4)c3)c1=O)CC1OCCC(C)N1C2=O (centres unmarked) [Compound 6f],54.58%,–,63.23%,–,102.19%,–,–,–,–,–,–
COc1c2n(cc(C(=O)Nc3cccc(-c4cn(Cc5ccccc5C)nn4)c3)c1=O)CC1OCCC(C)N1C2=O (centres unmarked) [Compound 6g],39.11%,–,52.95%,–,101.52%,–,–,–,–,–,–
COc1c2n(cc(C(=O)Nc3cccc(-c4cn(Cc5ccccc5C(F)(F)F)nn4)c3)c1=O)CC1OCCC(C)N1C2=O (centres unmarked) [Compound 6h],50.37%,–,66.45%,–,93.73%,–,–,–,–,–,–
"C[C@@H]1CCO[C@H]2Cn3cc(C(=O)NCc4ccc(F)cc4F)c(=O)c(O)c3C(=O)N12 [DTG, Dolutegravir]",–,–,–,–,–,96.9%,> 50 µM,> 50 µM,82.6%,no obvious fertility toxicity or teratogenic toxicity,99.6%
